Results on 45 compounds are retold here after ChEMBL document CHEMBL1159068, “Discovery and SAR of small molecule PAR1 antagonists” (Bioorg Med Chem Lett, 2010).

For orientation: inhibition means how much of the control response was suppressed. As a reminder, the pKb is the negative decadic logarithm of the Kb, by convention in mol/L.

Each structure is given as a SMILES string.

The target in data set [1] is T1, Proteinase-activated receptor 1 (Homo sapiens) (UniProt P25116).
T1 sequence (whole entry): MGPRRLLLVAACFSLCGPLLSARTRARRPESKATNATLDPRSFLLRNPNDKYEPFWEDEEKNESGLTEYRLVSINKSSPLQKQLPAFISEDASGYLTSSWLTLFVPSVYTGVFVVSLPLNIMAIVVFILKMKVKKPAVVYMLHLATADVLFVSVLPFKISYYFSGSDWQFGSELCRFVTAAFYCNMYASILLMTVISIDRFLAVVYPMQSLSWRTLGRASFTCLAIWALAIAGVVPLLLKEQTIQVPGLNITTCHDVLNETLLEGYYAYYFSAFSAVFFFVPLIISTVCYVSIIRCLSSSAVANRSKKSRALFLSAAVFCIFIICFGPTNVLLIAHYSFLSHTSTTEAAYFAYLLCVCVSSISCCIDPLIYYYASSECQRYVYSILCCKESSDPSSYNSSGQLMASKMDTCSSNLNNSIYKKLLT
Put plainly: Antagonist activity at PAR1 expressed in CHO cells assessed as inhibition of SFLLR-induced intracellular calcium release at 10 uM. Format: functional, cell-based. A general note: A change in cytosolic calcium serves as a functional read-out for many receptors and channels.

The test system of another data set is Platelet. Put plainly: Inhibition of SFLLR-induced aggregation in human platelets. It is filed as functional.
The nature of data set [2]: Metabolic stability in human liver microsomes assessed as parent compound remaining after 60 mins. Format: ADME, Microsome. The note with it: read-out: Stability. On the technique in general: Liver microsomes are a subcellular fraction often used to study metabolism.
Data set [3] can be described thus: Metabolic stability in rat liver microsomes assessed as parent compound remaining after 60 mins. The note with it: read-out: Stability. Format: ADME, Microsome.
For another data set, the system named is Rattus norvegicus. Put plainly: Antithrombotic activity in rat arterio-venous shunt model of thrombosis assessed as increase in occlusion time at 1.25 mg/kg, iv. It is filed as functional.
Data set [4] deals with T1, Proteinase-activated receptor 1 (Homo sapiens). Put plainly: Antagonist activity at PAR1 expressed in CHO cells assessed as inhibition of SFLLR-induced intracellular calcium release. Format: functional, cell-based.

Turning to `CCOC(c1ccc2c(c1)OCCO2)C(SC(C)(C)C)n1ccnc1` (stereo not drawn), in data set [1], the inhibition worked out at 88%. Also, in the data set with Platelet, the pKb came out at 4.79.
Turning to `CCOC(c1ccc(Br)cc1)C(SC(C)(C)C)n1cnc(C)c1` (stereo not drawn), the inhibition in data set [1] turned out to be 100%. Also, the pKb with Platelet is given as 5.73.
Regarding `CCOC(c1ccc(Cl)cc1)C(SC(C)(C)C)n1cncc1Cl` (stereo not drawn), the inhibition in data set [1] is 59%.
Same read-out and setting: the same measure for `CCOC(c1ccc(Cl)cc1)C(SC(C)C)n1ccnc1` (stereo not drawn): 40%.
`CCCOC(c1ccc(Cl)c(Cl)c1)C(OC(C)(C)C)n1cnc(C)c1` (stereo not drawn): the remaining at 1 h came to 23% in data set [2] and 3% in data set [3]. Moreover, in the data set on Rattus norvegicus, the Activity is on record as 43%. Also, the inhibition in data set [1] was determined as 81%. The compound also gave a pKb in the data set with Platelet of 5.73.
Take `COC(c1ccc(Cl)cc1)C(SC(C)(C)C)n1cnc(C)c1` (stereo not drawn): in data set [1], the inhibition was determined as 96%. The compound also gave a pKb in the data set on Platelet of 4.42.
Taken in the same sequence, the figures for `CCOC(c1cccc(Cl)c1)C(SC(C)(C)C)n1cnc(C)c1` (stereo not drawn) were 100% and 4.96.
For the compound `CCOC(c1ccc2sccc2c1)C(SC(C)(C)C)n1ccnc1` (stereo not drawn), the inhibition in data set [1] was 98%. For the same compound, the pKb in the data set on Platelet worked out at 5.2.
Take `CCOC(c1ccc(Cl)cc1)C(SC(C)(C)C)n1cncn1` (stereo not drawn): the inhibition in data set [1] is 99%. For the same compound, the pKb in the data set on Platelet amounted to 4.64.
With `CCOC(c1ccccc1)C(SC(C)(C)C)n1ccnc1` (stereo not drawn), the inhibition in data set [1] amounted to 92%. In the data set with Platelet, this compound gave a pKb of 4.46.
On the same counts, the results for `CCCOC(c1ccc(Cl)c(Cl)c1)C(OC(C)(C)C)n1ccnc1` (stereo not drawn) are 93% and 5.04.
With `CCCOC(c1ccc(Cl)cc1)C(SC(C)(C)C)n1cnc(C)c1` (stereo not drawn), the pKb in data set [4] stood at 5.51; in the data set with Platelet, 5.71. The remaining at 1 h in data set [2] came to 28%; in data set [3], 0%. The Activity in the data set on Rattus norvegicus is reported as 45%. Besides, the inhibition in data set [1] is 99%.
`CCOC(c1ccc(Cl)cc1)C(SC(C)(C)C)n1ccnc1C` (stereo not drawn): in data set [1], the inhibition stood at 63%.
As for `CCCCCSC(C(OCC)c1ccc(Cl)cc1)n1ccnc1` (stereo not drawn), the inhibition in data set [1] was 19%.
For `CCCOC(c1ccc(F)cc1)C(OC(C)(C)C)n1ccnc1` (stereo not drawn), in data set [1], the inhibition was 18%.
Regarding `CCOC(c1ccc(C(F)(F)F)cc1)C(SC(C)(C)C)n1ccnc1` (stereo not drawn), in data set [1], the inhibition came out at 100%. The compound also gave a pKb in the data set on Platelet of 5.38.
Taken in the same sequence, the figures for `CCOC(c1ccc(Cl)cc1)C(SC(C)(C)C)n1cnc(Cl)c1` (stereo not drawn) were 96% and 4.6.
As to `COC(c1ccc(Cl)cc1)C(SC(C)(C)C)n1ccnc1` (stereo not drawn), the inhibition in data set [1] worked out at 95%. Also, in the data set with Platelet, the pKb came out at 5.24.
Taken in the same sequence, the figures for `CCCOC(c1ccc(Cl)cc1)C(SC(C)(C)C)n1ccnc1` (stereo not drawn) were 96% and 5.01.
On the same counts, the results for `CCOC(c1ccc(Br)cc1)C(SC(C)(C)C)n1ccnc1` (stereo not drawn) are 100% and 5.06.
Consider `CCOC(c1ccc(Cl)cc1)C(SC(C)(C)C)n1cnnc1` (stereo not drawn), for which the inhibition in data set [1] was 34%.
Turning to `CCCCSC(C(OCC)c1ccc(Cl)cc1)n1ccnc1` (stereo not drawn), the inhibition in data set [1] amounted to 76%. The compound further gave a pKb in the data set with Platelet of 4.58.
As for `CCOC(c1ccc(Cl)cc1)C(SC(C)(C)C)n1cccn1` (stereo not drawn), the inhibition in data set [1] came to 0%.
With `CCOC(c1cccc(OC)c1)C(SC(C)(C)C)n1ccnc1` (stereo not drawn), the inhibition in data set [1] turned out to be 76%. This compound also had a pKb in the data set with Platelet of 0.
For `CCOC(c1ccc(Cl)cc1Cl)C(OC(C)(C)C)n1cnc(C)c1` (stereo not drawn), the remaining at 1 h amounted to 57% in data set [2] and 3% in data set [3]. The Activity in the data set with Rattus norvegicus was 0%. The inhibition in data set [1] was found to be 98%. The compound further showed a pKb with Platelet of 5.32.
Turning to `CCOC(c1ccc(Cl)cc1)C(OC(C)(C)C)n1ccnc1` (stereo not drawn), the remaining at 1 h in data set [2] was determined as 74%; in data set [3], 25%. The Activity in the data set on Rattus norvegicus is 0%. Also, the inhibition in data set [1] came out at 85%. In addition, in the data set with Platelet, the pKb came to 4.54.
Regarding `CC(C)(C)SC(C(OCc1ccccc1)c1ccc(Cl)cc1)n1ccnc1` (stereo not drawn), the inhibition in data set [1] amounted to 23%.
On the same count and under the same terms, the value for `CCOC(c1ccc(Cl)cc1)C(SC(C)(C)C)n1cnc(C(F)(F)F)c1` (stereo not drawn) was 20%.
As to `CCOC(c1ccc(Cl)cc1)C(CC(C)(C)C)n1ccnc1` (stereo not drawn), the remaining at 1 h worked out at 57% in data set [2] and 3% in data set [3]. Moreover, in data set [1], the inhibition was 74%. Moreover, the pKb in the data set on Platelet was 4.12.
For the compound `CCCOC(c1ccc(Cl)cc1Cl)C(SC(C)(C)C)n1cnc(C)c1` (stereo not drawn), the remaining at 1 h was determined as 28% in data set [2] and 2% in data set [3]. Moreover, in the data set on Rattus norvegicus, the Activity came to 7%. In addition, in data set [1], the inhibition amounted to 88%. The compound further registered a pKb in the data set on Platelet of 5.95.
Regarding `CC(C)(C)SC(C(O)c1ccc(Cl)cc1)n1ccnc1` (stereo not drawn), in data set [1], the inhibition turned out to be 11%.
As for `CCCOC(c1ccccc1Cl)C(SC(C)(C)C)n1cnc(C)c1` (stereo not drawn), in data set [1], the inhibition was 97%. Further, in the data set with Platelet, the pKb is listed as 5.14.
Regarding `CCCOC(c1ccc(Br)cc1)C(SC(C)(C)C)n1cnc(C)c1` (stereo not drawn), the results for the remaining at 1 h in data set [2] and in data set [3] were 23% and 0%, respectively. The Activity in the data set with Rattus norvegicus turned out to be 0%. The inhibition in data set [1] was 76%. The compound also registered a negative-log Kb (pKb) in the data set with Platelet of 5.99.
As for `CCOC(c1ccccc1[N+](=O)[O-])C(SC(C)(C)C)n1ccnc1` (stereo not drawn), the inhibition in data set [1] worked out at 33%.
With `CCOC(c1ccc(Cl)cc1)C(SC(C)(C)C)n1cnc(C)c1` (stereo not drawn), the inhibition in data set [1] was determined as 92%. In the data set with Platelet, this compound yielded a pKb of 5.36.
Taken in the same sequence, the figures for `CCOC(c1ccccc1Cl)C(SC(C)(C)C)n1cnc(C)c1` (stereo not drawn) were 100% and 5.21.
Regarding `CCOC(c1ccc(Cl)cc1)C(n1ccnc1)[S+]([O-])C(C)(C)C` (stereo not drawn), the remaining at 1 h in data set [2] was 59%; in data set [3], 39%. In addition, the inhibition in data set [1] amounted to 15%.
For the compound `CCOC(c1ccc(C(F)(F)F)cc1)C(OC(C)(C)C)n1cnc(C)c1` (stereo not drawn), in data set [1], the inhibition is 98%. The compound also yielded a pKb in the data set on Platelet of 5.2.
`CCOC(c1ccc(Cl)cc1Cl)C(SC(C)(C)C)n1cnc(C)c1` (stereo not drawn): the inhibition in data set [1] is 93%. Besides, the pKb in the data set with Platelet is 5.84.
As for `CCOC(c1ccc(Cl)cc1)C(SC(C)(C)C)n1ccnc1` (stereo not drawn), in data set [1], the inhibition was found to be 99%. In addition, the pKb in the data set with Platelet is on record as 5.05.
As to `CCOC(c1ccc(C(=O)OC)cc1)C(SC(C)(C)C)n1ccnc1` (stereo not drawn), the inhibition in data set [1] is 37%.
On the same count and under the same terms, the same measure for `CCCCOC(c1ccc(Cl)cc1)C(SC(C)(C)C)n1ccnc1` (stereo not drawn): 33%.
Take `CCOC(c1ccc(Cl)cc1)C(SC1CCCCC1)n1ccnc1` (stereo not drawn): the inhibition in data set [1] is 3%.
For `CCOC(c1ccc(Cl)cc1)C(n1ccnc1)S(=O)(=O)C(C)(C)C` (stereo not drawn), the remaining at 1 h in data set [2] is 35%; in data set [3] it was 47%. For the same compound, in data set [1], the inhibition is 13%.
As for `CCOC(c1ccc(Cl)cc1)C(SC(C)(C)C)n1cnc(C)c1C` (stereo not drawn), in data set [1], the inhibition came to 64%.
